Measured values taken from patent US9302993B2, “8-hydroxy quinoline derivatives” (PRANA BIOTECHNOLOGY LIMITED, priority 2002, dated 2016).
Values joined by “and” are separate entries in the source; they are usually repeats but may differ in a detail not shown here. Identical values can stand only once. Like-named read-outs stand apart in the source and are kept apart here.

Assays:
[1] = target: T1, hydrogen peroxide generation by Aβ in the presence of copper (Homo sapiens, UniProt P05067); assay: Fluorometric H2O2 assay (Assay 1); format: biochemical; conditions: DCF/HRP, 37 C 60 min, several values in one cell = repeat determinations
T1 construct: The reaction solutions contained Aβ 1-42 at concentrations in the range of 50 nM to 1 μM
T1 sequence (P05067 672-713 limits assumed): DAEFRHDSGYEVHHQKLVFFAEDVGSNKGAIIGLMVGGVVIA
Method: Assay 1. Fluorometric H2O2 Assay
A fluorometric assay was used to test the ability of a test compound to inhibit hydrogen peroxide generation by Aβ in the presence of copper based on dichlorofluoroscein diacetate (DCF; Molecular Probes, Eugene Oreg.). The DCF solution (5 mM) in 100% dimethyl sulphoxide (previously purged with argon for 2 hr at 20° C.) was deacetylated in the presence of 0.25M NaOH for 30 min and neutralised at pH 7.4 to a final concentration of 1 mM. Horseradish peroxidase (HRP) stock solution was prepared to 1 μM at pH 7.4. The reactions were carried out in PBS, pH 7.4 in a 96 well plate (total volume=250 μl/well). The reaction solutions contained Aβ 1-42 at concentrations in the range of 50 nM to 1 μM, copper-glycine chelate (Cu-Gly), was prepared by adding CuCl2 to glycine in the ratio of 1:6 and added to the Aβ in the proportion 2Cu-Gly: 1Aβ), reducing agents including dopamine (5 μM) or ascorbic acid, deacetylated DCF 100 μM, and HRP, 0.1 μM. […] The reaction mixture was incubated at 37 C for 60 min. […] H2O2 concentration may be established by comparing fluorescence with the H2O2 standards. Inhibition of AB H2O2 production was assayed by including a given concentration of test compound(s) in the test wells.

[2] = tested on: Neuronal cortical cells; assay: Assay for test compound cytoxicity, MTS (Assay 3(d)); format: cell-based, mouse; conditions: BL6J×129sv, mouse, 4 days, 10 uM
Method: Media was then replaced with Neurobasal media (Invitrogen Life Technologies) and B27 supplements (Invitrogen Life Technologies). Cultures were maintained at 37° C. in 5% CO2. Prior to experimentation, the culture medium was replaced with Neurobasal media and B27 minus antioxidants (Invitrogen Life Technologies).
Cell viability is determined using the MTS assay. Culture medium is […] replaced with fresh neurobasal medium plus B27 supplements minus antioxidants. 1/10th volume MTS solution (Cell Titre 96 Aqueous One, Promega Corporation) and incubated at 37° C., 2 hrs. 200 microliter aliquots are measured with a spectrophotometer at 560 nm.
(d) Assay for Test Compound Cytoxicity
Neuronal cortical cells were cultured for five days as per Assay 2 in NB media and B27 supplement.
On day six the test compounds were added to the neuronal cell cultures in NB media and B27 supplement minus antioxidants.
Test compounds were dissolved in 100% DMSO to a concentration of 2.5 mM (10 mM if excess compound was weighed out per vial—then diluted to 2.5 mM). […] Test compounds were not added directly to cells, instead they were added to a 48 well ‘Drug Plate’ as comprised below:
The Drug Plate was incubated at 37° C. for 15 mins. 200 ul of each well was added in triplicate to the corresponding cell plate. The cell plate was incubated at 37 C, for 4 days.
On completion of the assay, 1/10 volume MTS was added per well of plate (ie 25 ul/250 ul). The plates were incubated at 37 C for 2 hrs, and then absorbance was read at 560 nm.

[3] = Aβ 1-42 with Cu-Gly, read-out: Peroxide IC50

Row | IC50 [1, 3] | IC50 ([1]; Peroxide IC50, Aβ 1-42 with Cu-Gly) [µM] | SMILES | Viable 10 uM [2]
1 | > 10 µM |  | O=C(O)CNC(=O)c1cc(O)c2cccc(O)c2n1 [compound 992] | 
2 | > 10 µM |  | CC(C)Oc1c(-c2cccc([N+](=O)[O-])c2)cc(Cl)c2cccnc12 [compound 857] | 
3 | > 10 µM |  | CC(C)Oc1c(-c2ccccc2)cc(Cl)c2cccnc12 [compound 818] | 
4 | > 10 µM |  | Cc1ccccc1-c1cc(I)c(OC(C)C)c2ncccc12 [compound 826] | 
5 | > 10 µM |  | c1ccc(COc2cccc3cccnc23)cc1 [compound 855] | 
6 | 90 µM |  | O=C(O)C1OC(Oc2cccc3cccnc23)[C@H](O)[C@@H](O)[C@H]1O (some centres unmarked) [compound 39] | 
7 | 50 µM and > 10 µM |  | Oc1ccc(CCc2ccc3cccc(O)c3n2)cc1 [compound 91] | 
8 | > 10 µM |  | CC(C)Oc1c(-c2ccccc2C(F)(F)F)cc(Cl)c2cccnc12 [compound 827] | 
9 | > 10 µM |  | Cc1ccccc1-c1cc(Cl)c2c(-c3ccccc3C)ccnc2c1OC(C)C [compound 805] | 
10 | > 10 µM |  | Oc1c(-c2ccccc2)cc(Cl)c2cccnc12 [compound 808] | 71.89
11 | > 10 µM |  | Brc1ccc(OCc2ccccc2)c2ncccc12 [compound 821] | 
12 | > 10 µM |  | Oc1c(-c2ccsc2)cc(Cl)c2cccnc12 [compound 972] | 30.59
13 | > 10 µM |  | CC(C)Oc1c(-c2cc(F)cc(F)c2)cc(Cl)c2cccnc12 [compound 820] | 
14 | > 10 µM |  | CC(C)Oc1c(-c2ccc(N(C)C)cc2)cc(Cl)c2cccnc12 [compound 868] | 
15 | > 10 µM and 6.6 µM |  | CCOC(=O)c1ccccc1-c1ccc2cccc(O)c2n1 [compound 1004] | 
16 | 7.1 µM |  | Oc1cccc2ccc(-n3cccn3)nc12 [compound 964, 2-pyrazol-1-yl-quinolin-8-ol] | 
17 | > 10 µM |  | O=[N+]([O-])c1cccc(-c2cc(Cl)c3cccnc3c2O)c1 [compound 811] | 78.46
18 | > 10 µM |  | COc1cccc(-c2cc(Cl)c3cccnc3c2OC(C)C)c1 [compound 801] | 
19 | > 10 µM |  | CC(C)Oc1c(I)cc(Cl)c2cccnc12 [compound 804] | 
20 | > 10 µM |  | CC(C)Oc1c(I)cc(-c2ccc(C(F)(F)F)cc2)c2cccnc12 [compound 823] | 

Row | IC50 [1, 3] | IC50 ([1]; Peroxide IC50, Aβ 1-42 with Cu-Gly) [µM] | SMILES | Viable 10 uM [2]
21 | > 10 µM |  | CC(C)Oc1c(F)cc(-c2ccccc2)c2cccnc12 [compound 816] | 
22 | > 10 µM |  | Oc1c(-c2cccc(F)c2)cc(Cl)c2cccnc12 [compound 850] | 71.28
23 | 7.8 µM |  | CC(=O)NCc1ccc2cccc(O)c2n1 [compound 967] | 90.69
24 | > 10 µM |  | COc1ccc(-c2cc(Cl)c3cccnc3c2OC(C)C)cc1 [compound 800] | 
25 | > 10 µM |  | Oc1c(-c2ccccc2F)cc(Cl)c2cccnc12 [compound 815] | 53.68
26 | 4.5 µM |  | O=Cc1ccccc1-c1cc(Cl)c2cccnc2c1O [compound 849] | 98.83
27 | > 10 µM |  | CC(C)Oc1c(-c2cccc(F)c2)cc(Cl)c2cccnc12 [compound 858] | 
28 | 0.44 µM |  | Oc1ccc(F)c2cccnc12 [compound 1034] | 
29 | 0.5 µM |  | Nc1cnc2c(O)c(Cl)cc(Cl)c2c1 [compound 1060, 3-amino-5,7-dichloro-8-hydroxyquinoline] | 
30 | > 10 µM |  | Oc1c(-c2ccc(F)cc2F)cc(Cl)c2cccnc12 [compound 973] | 42.38
31 | > 10 µM |  | COc1ccccc1-c1cc(-c2ccccc2OC)c2cccnc2c1OC(C)C [compound 824] | 
32 | > 10 µM |  | CC(C)Oc1c(I)cc(-c2ccccc2F)c2cccnc12 [compound 856] | 
33 | > 10 µM |  | CC(C)Oc1c(I)cc(I)c2cccnc12 [compound 807] | 
34 | 6.7 µM |  | Oc1c(-c2cc3ccccc3s2)cc(Cl)c2cccnc12 [compound 970] | 32.33
35 | > 10 µM |  | COc1cccc2ccc(C(=O)NCCc3ccccn3)nc12 [compound 1022] | 
36 | > 10 µM |  | COc1ccccc1-c1cc(I)c(OC(C)C)c2ncccc12 [compound 825] | 
37 | 90 µM |  | O=S(=O)(O)c1ccc2cccc(O)c2n1 [compound 50] | 
38 | > 10 µM |  | Cc1ccccc1-c1cc(Cl)c2cccnc2c1OC(C)C [compound 866] | 
39 | > 10 µM |  | Oc1c(-c2cc(F)cc(F)c2)cc(Cl)c2cccnc12 [compound 813] | 66
40 | > 10 µM |  | O=C(NCc1nccs1)c1ccc2cccc(O)c2n1 [compound 1019] | 

Row | IC50 [1, 3] | IC50 ([1]; Peroxide IC50, Aβ 1-42 with Cu-Gly) [µM] | SMILES | Viable 10 uM [2]
41 | > 10 µM |  | CC(C)Oc1c(-c2ccccc2C=O)cc(Cl)c2cccnc12 [compound 867] | 
42 | > 10 µM |  | Oc1c(I)cc(-c2ccccc2F)c2cccnc12 [compound 865] | 34.07
43 | > 10 µM |  | Oc1cccc2ccc(-n3ccnc3)nc12 [compound 965] | 
44 |  | > 100 | O=C(O)c1cc(O)c2cccc(O)c2n1 [compound 52] | 
45 | > 10 µM |  | Oc1c(-c2cc(Cl)c3cccnc3c2O)cc(Cl)c2cccnc12 [compound 971] | 84.29
46 | > 10 µM |  | CC(=O)Oc1ccc(-c2cc(Cl)c3cccnc3c2OC(C)C)s1 [compound 822] | 
47 | > 10 µM |  | OCC1OC(Oc2cccc3cccnc23)[C@H](O)[C@@H](O)[C@H]1O (some centres unmarked) [compound 62] | 
48 | 0.32 µM |  | CC(=O)Nc1ccc(O)c2ncccc12 [compound 1028] | 
49 | > 10 µM |  | Oc1c(-c2ccc(F)cc2)cc(Cl)c2cccnc12 [compound 812] | 75.36
50 | > 10 µM |  | Cc1nccn1-c1ccc2cccc(O)c2n1 [compound 993] | 
51 | > 10 µM |  | CC(C)Oc1c(-c2ccc(F)cc2)cc(Cl)c2cccnc12 [compound 802] | 
52 | > 10 µM |  | O=C(O)CNC(=O)c1ccc2cccc(O)c2n1 [compound 956] | 89
53 | > 10 µM |  | O=S(=O)(NCCc1c[nH]cn1)c1ccc2cccc(O)c2n1 [compound 1035] | 
54 | > 10 µM |  | COc1ccccc1-c1cc(Cl)c2cccnc2c1OC(C)C [compound 819] | 
55 | 0.64 µM |  | Oc1cccc2cc3ccccc3nc12 [compound 1043] | 
56 | > 10 µM |  | CC(C)Oc1c(-c2ccccc2F)cc(Cl)c2cccnc12 [compound 803] | 
57 |  |  | COc1ccc(-c2cc(Cl)c3cccnc3c2O)cc1 [compound 814] | 31.13
58 | > 10 µM |  | CNc1ccc2c(Cl)cc(Cl)c(O)c2n1 [compound 1047, 5,7-Dichloro-2-methylamino-8-hydroxyquinoline] | 
59 | > 10 µM |  | CC(C)Oc1c(F)cc(-c2cc(F)cc(F)c2)c2cccnc12 [compound 817] | 
60 | 40 µM |  | O=C(O)c1ccc2cccc(O)c2n1 [compound 57] | 
